Reference: patent US12037344B2, “NLRP3 modulators” (INNATE TUMOR IMMUNITY, INC., priority 2018, dated 2024)
Like-named read-outs stand apart in the source and are kept apart here.

Legend:
[1] = test system: THP-1 cells; assay: Measurement of IL-1β production, hTRF protocol (second alternative procedure), THP-1 cells; format: cell-based, human; settings: Homo sapiens
Outline: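 Compounds, dilution series starting at a final 10 μM, were incubated 2 hours at 37° C with PMA-differentiated THP-1 cells (50 ng/ml overnight; 50,000 cells/well, 2% FBS RPMI). Released IL-1β quantified in supernatant by hTRF kit with 1:40 antibody dilution, 4° C overnight, 665/615 nm ratio.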

[2] = biological target: T1, TLR7 (Homo sapiens, UniProt Q9NYK1); assay: In vitro human TLR7 binding reporter assay (HEK-Blue, NF-kB/AP1-inducible SEAP); format: cell-based; settings: activity range class, read-out: TLR7 Agonist EC50
T1 construct: human HEK-Blue cells co-expressing a TLR7 or TLR8 gene
T1 sequence (Q9NYK1 27-1049): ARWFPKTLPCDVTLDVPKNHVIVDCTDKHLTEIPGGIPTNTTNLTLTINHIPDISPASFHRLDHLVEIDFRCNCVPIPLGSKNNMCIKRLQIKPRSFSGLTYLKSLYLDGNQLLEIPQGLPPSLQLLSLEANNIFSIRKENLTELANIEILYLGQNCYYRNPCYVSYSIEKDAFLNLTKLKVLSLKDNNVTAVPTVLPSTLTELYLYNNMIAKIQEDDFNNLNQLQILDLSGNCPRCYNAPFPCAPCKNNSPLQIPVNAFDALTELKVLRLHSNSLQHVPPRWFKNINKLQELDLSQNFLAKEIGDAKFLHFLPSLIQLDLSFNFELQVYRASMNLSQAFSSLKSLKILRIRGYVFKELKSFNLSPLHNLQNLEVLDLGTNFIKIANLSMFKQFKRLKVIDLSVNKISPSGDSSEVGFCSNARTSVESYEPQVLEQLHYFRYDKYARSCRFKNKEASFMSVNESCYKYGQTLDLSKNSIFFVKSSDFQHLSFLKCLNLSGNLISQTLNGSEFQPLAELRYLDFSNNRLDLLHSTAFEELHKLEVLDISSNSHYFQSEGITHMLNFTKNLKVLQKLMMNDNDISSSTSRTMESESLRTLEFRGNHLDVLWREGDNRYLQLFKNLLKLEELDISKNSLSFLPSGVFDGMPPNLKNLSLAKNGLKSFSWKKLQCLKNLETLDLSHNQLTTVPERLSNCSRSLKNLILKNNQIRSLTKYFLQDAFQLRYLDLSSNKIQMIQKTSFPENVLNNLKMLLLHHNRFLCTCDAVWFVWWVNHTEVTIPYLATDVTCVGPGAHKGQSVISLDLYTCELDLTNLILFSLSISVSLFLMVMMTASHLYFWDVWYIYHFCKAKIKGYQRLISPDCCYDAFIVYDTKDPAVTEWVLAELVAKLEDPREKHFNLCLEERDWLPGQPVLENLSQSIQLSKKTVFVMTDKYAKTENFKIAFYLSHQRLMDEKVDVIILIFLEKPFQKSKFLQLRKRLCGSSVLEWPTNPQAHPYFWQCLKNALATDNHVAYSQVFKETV
Outline: (§1)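 HEK-Blue cells expressing human TLR7 or TLR8 with NF-kB/AP1-inducible SEAP reporter, plated 24 h, then compound-treated 18 h at 37° C, 5% CO2. EC50 normalized to 100% Ymax set by 50 μM reference standard.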

[3] = biological target: T2, TLR8 (Homo sapiens, UniProt Q9NR97); assay: In vitro human TLR8 binding reporter assay (HEK-Blue, NF-kB/AP1-inducible SEAP); format: cell-based; settings: activity range class, read-out: TLR8 Agonist EC50
T2 construct: human HEK-Blue cells co-expressing a TLR7 or TLR8 gene
T2 sequence (Q9NR97 27-1041): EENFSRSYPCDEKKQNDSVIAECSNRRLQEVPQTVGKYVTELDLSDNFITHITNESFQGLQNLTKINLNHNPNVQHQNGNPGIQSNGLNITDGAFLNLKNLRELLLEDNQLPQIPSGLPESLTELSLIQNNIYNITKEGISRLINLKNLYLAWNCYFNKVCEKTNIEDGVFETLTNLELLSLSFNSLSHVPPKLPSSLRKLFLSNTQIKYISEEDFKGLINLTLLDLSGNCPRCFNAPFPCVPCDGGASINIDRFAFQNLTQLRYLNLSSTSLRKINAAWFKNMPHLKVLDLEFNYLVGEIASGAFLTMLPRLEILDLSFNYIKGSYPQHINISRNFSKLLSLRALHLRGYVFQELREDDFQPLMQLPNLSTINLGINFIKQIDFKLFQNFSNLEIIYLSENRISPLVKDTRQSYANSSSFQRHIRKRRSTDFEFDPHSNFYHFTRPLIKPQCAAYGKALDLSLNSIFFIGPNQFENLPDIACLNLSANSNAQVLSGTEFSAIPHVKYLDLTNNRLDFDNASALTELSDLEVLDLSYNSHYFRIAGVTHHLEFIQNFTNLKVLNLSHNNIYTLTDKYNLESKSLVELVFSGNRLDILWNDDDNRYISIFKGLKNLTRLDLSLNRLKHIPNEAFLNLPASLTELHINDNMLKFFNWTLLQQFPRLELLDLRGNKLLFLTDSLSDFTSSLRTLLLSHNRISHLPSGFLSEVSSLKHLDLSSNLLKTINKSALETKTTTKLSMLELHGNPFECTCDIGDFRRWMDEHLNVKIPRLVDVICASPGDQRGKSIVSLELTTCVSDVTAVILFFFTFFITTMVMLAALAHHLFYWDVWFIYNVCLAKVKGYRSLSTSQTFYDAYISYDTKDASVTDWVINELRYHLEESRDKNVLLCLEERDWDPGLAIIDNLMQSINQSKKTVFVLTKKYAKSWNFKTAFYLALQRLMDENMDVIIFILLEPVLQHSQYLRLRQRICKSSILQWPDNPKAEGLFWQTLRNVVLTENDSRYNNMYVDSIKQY
Outline: as §1

[4] = THP-1, read-out: NLRP3 hILIB EC50
[5] = THP-1, IL-1β production, human, read-out: NLRP3 hILIB EC50

Compound	EC50 [1, 4]	EC50 [2]	EC50 [3]	EC50 [1, 5]
Nc1nc2cc(-c3cc[nH]n3)ccc2c2cn(CCN3CCOCC3)nc12 [Example 20, 2-[2-(morpholin-4-yl)ethyl]-7-(1H-pyrazol-3-yl)-2H-pyrazolo[3,4-c]quinolin-4-amine]	1.08 µM	20 to 100 µM	> 100 µM	–
CN(C)CCn1cc2c(n1)c(N)nc1cc(-c3cc[nH]n3)ccc12 [Example 21]	–	20 to 100 µM	> 100 µM	2.08 µM
CN(C)CCCn1cc2c(n1)c(N)nc1cc(-c3cc[nH]n3)ccc12 [Example 22]	–	20 to 100 µM	> 100 µM	0.63 µM
Nc1nc2cc(-c3cc[nH]n3)ccc2c2cn(CCC(=O)Nc3ccccc3)nc12 [Example 23]	–	> 100 µM	> 100 µM	1.39 µM
CCNC(=O)Cn1cc2c(n1)c(N)nc1cc(-c3cc[nH]n3)ccc12 [Example 24]	–	> 100 µM	> 100 µM	2.9 µM
Nc1nc2cc(-c3cc[nH]n3)ccc2c2cn(Cc3ccccn3)nc12 [Example 25]	–	> 100 µM	> 100 µM	0.26 µM
Nc1nc2cc(-c3cc[nH]n3)ccc2c2cn(CCCc3cccnc3)nc12 [Example 26]	–	> 100 µM	> 100 µM	0.98 µM
Nc1nc2cc(-c3cc[nH]n3)ccc2c2cn(CCCN3CCOCC3)nc12 [Example 27]	–	> 100 µM	> 100 µM	0.43 µM
Nc1nc2cc(-c3cc[nH]n3)ccc2c2cn(CC(=O)Nc3ccccn3)nc12 [Example 28]	–	> 100 µM	> 100 µM	1.31 µM
CCN(CCn1cc2c(n1)c(N)nc1cc(-c3cc[nH]n3)ccc12)C(C)=O [Example 29, N-[2-[4-amino-7-(1H-pyrazol-3-yl)-2H-pyrazolo[3,4-c]quinolin-2-yl]ethyl]-N-ethylacetamide]	6.01 µM	> 100 µM	> 100 µM	–
Nc1nc2cc(-c3cc[nH]n3)ccc2c2cn(CCN3CC4COCC4C3)nc12 (stereo not drawn) [Example 30, 2-(2-{hexahydro-1H-furo[3,4-c]pyrrol-5-yl}ethyl)-7-(1H-pyrazol-3-yl)-2H-pyrazolo[3,4-c]quinolin-4-amine]	–	> 100 µM	> 100 µM	0.77 µM
Nc1nc2cc(-c3cc[nH]n3)ccc2c2cn(CCNC(=O)c3ccc(F)cn3)nc12 [Example 31, N-{2-[4-amino-7-(1H-pyrazol-3-yl)-2H-pyrazolo[3,4-c]quinolin-2-yl]ethyl}-5-fluoropyridine-2-carboxamide]	–	20 to 100 µM	1 to 20 µM	0.15 µM
COc1ccc(CC(=O)NCCn2cc3c(n2)c(N)nc2cc(-c4cc[nH]n4)ccc23)cc1 [Example 32]	–	1 to 20 µM	> 100 µM	14.7 µM
CC(=O)NCCn1cc2c(n1)c(N)nc1cc(-c3cc[nH]n3)ccc12 [Example 33]	–	> 100 µM	> 100 µM	11.8 µM
CC(C)C(=O)NCCn1cc2c(n1)c(N)nc1cc(-c3cc[nH]n3)ccc12 [Example 34]	–	20 to 100 µM	> 100 µM	8.85 µM
Nc1nc2cc(-c3cc[nH]n3)ccc2c2cn(CCNC(=O)CO)nc12 [Example 35]	–	20 to 100 µM	> 100 µM	20.7 µM
Nc1nc2cc(-c3cc[nH]n3)ccc2c2cn(CCNC(=O)c3ccccc3)nc12 [Example 36]	–	20 to 100 µM	> 100 µM	1.38 µM
Nc1nc2cc(-c3cc[nH]n3)ccc2c2cn(CCNC(=O)c3ccncc3)nc12 [Example 37]	–	> 100 µM	> 100 µM	0.95 µM
Nc1nc2cc(-c3cc[nH]n3)ccc2c2cn(CCNC(=O)c3cccnc3)nc12 [Example 38]	–	> 100 µM	> 100 µM	4.93 µM
Nc1nc2cc(-c3cc[nH]n3)ccc2c2cn(CCNC(=O)c3ccccn3)nc12 [Example 39]	–	> 100 µM	20 to 100 µM	0.25 µM
COc1ccc(C(=O)NCCn2cc3c(n2)c(N)nc2cc(-c4cc[nH]n4)ccc23)cc1 [Example 40]	–	> 100 µM	> 100 µM	0.78 µM
Cc1ccc(C(=O)NCCn2cc3c(n2)c(N)nc2cc(-c4cc[nH]n4)ccc23)cc1 [Example 41]	–	> 100 µM	> 100 µM	0.8 µM
Nc1nc2cc(-c3cc[nH]n3)ccc2c2cn(CCNC(=O)c3ccc(F)cc3)nc12 [Example 42]	–	> 100 µM	> 100 µM	0.67 µM
Cc1nc(C(=O)NCCn2cc3c(n2)c(N)nc2cc(-c4cc[nH]n4)ccc23)cs1 [Example 43]	–	> 100 µM	> 100 µM	0.46 µM
Nc1nc2cc(-c3cc[nH]n3)ccc2c2cn(CCNC(=O)c3cocn3)nc12 [Example 44]	–	> 100 µM	> 100 µM	0.63 µM
Cc1cc(C(=O)NCCn2cc3c(n2)c(N)nc2cc(-c4cc[nH]n4)ccc23)nn1C [Example 45]	–	> 100 µM	> 100 µM	1.41 µM
Cc1nc(C)c(C(=O)NCCn2cc3c(n2)c(N)nc2cc(-c4cc[nH]n4)ccc23)o1 [Example 46]	–	> 100 µM	> 100 µM	4.19 µM
Nc1nc2cc(-c3cc[nH]n3)ccc2c2cn(CCNC(=O)C3CCOCC3)nc12 [Example 47]	–	> 100 µM	> 100 µM	23.3 µM
